Tested on: aerobic bacteria
Assay: Dissolved oxygen measurement in an illuminated microalgae-bacteria culture sample with successive additions of substrate and inhibitor (Example 2, FIG. 4)
Format: cell-based
Conditions: culture of Nannochloropsis oculata sp. 0.3 g/L and aerobic bacteria 0.05 g/L
Description: A sample of a culture comprising microalgae of the type Nannochloropsis oculata sp. in a concentration of 0.3 g/L. and aerobic bacteria in a concentration of 0.05 g/L was transferred from a bioreactor to a chamber having a volume of 300 mL and comprising a magnetic stirrer and a source for emitting light. The source for emitting light comprised light-emitting diode strings located around the chamber.
During the whole experiment, the chamber was provided with light. In other words, several illumination steps were carried out successively, in order to conduct, during each illumination step, the measurement of the dissolved oxygen present in the sample. This measurement was carried out with a Luminescent Dissolved Oxygen (LDO) sensor (HACH) inserted in the chamber. After each illumination step, the sample was returned to the bioreactor and replaced with a new sample.
More particularly, after point 11, a total amount of 70 mg/L of CuSO4 was added to the sample.

## O=S(=O)([O-])[O-].[Cu+2] [CuSO4]
Successive additions 1 to 11, total 70 mg/L CuSO4 after point 11
  effect on the activity of bacteria (oxygen production rate of the sample): increasing inhibitory effect

## CCO [ethanol]
After each addition (1 to 11) of substrate
  effect on the activity of bacteria (dissolved oxygen concentration, oxygen consumption by respiration): increases the activity of bacteria

Reference: patent US20220220527A1, “METHOD FOR MEASURING THE ACTIVITY OF A CULTURE OF MICROALGAE” (TotalEnergies SE, priority 2019, published 2022)
